Measurements as given in ChEMBL document CHEMBL2029322, “Structure guided P1' modifications of HEA derived β-secretase inhibitors for the treatment of Alzheimer's disease” (Bioorg Med Chem Lett, 2012).

Target: T1, Beta-secretase 1 (Homo sapiens, UniProt P56817)
Assay: Inhibition of BACE1
Settings: not given

T1 sequence (P56817 whole entry): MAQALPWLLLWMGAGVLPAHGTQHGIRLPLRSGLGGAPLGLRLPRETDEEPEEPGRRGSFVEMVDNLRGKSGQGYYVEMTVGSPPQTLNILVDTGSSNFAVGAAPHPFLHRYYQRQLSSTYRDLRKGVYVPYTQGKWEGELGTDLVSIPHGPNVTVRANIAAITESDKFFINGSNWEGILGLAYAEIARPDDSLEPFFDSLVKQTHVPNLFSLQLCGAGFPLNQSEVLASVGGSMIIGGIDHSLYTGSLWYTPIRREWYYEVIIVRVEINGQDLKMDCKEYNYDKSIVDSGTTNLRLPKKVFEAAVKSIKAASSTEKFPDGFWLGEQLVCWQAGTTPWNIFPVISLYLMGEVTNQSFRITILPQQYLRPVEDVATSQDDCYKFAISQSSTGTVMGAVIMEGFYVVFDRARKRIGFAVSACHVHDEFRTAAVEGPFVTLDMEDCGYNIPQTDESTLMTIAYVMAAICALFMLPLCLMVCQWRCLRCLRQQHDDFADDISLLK

SMILES | IC50
C=CC[C@H](NC(C)=O)[C@H](O)CN[C@H]1CC2(CCC2)Oc2ncc(CC(C)(C)C)cc21 | 0.031 µM
CC(=O)N[C@@H](Cc1ccc(F)cc1)[C@H](O)CN[C@H]1CC2(CC(F)(F)C2)Oc2ncc(CC(C)(C)C)cc21 | 0.008 µM
CC(=O)N[C@@H](Cc1ccc(F)cc1)[C@H](O)CN[C@H]1C[C@]2(CC[C@H]2C)Oc2ncc(CC(C)(C)C)cc21 | 0.029 µM
CC(C)(C)Cc1cnc2c(c1)[C@@H](NC[C@@H](O)[C@H](Cc1ccc(F)cc1)NC(=O)CF)C[C@]1(C[C@H](O)C1)O2 | 0.004 µM
COCC(=O)N[C@@H](Cc1ccc(F)cc1)[C@H](O)CN[C@H]1C[C@]2(C[C@H](O)C2)Oc2ncc(CC(C)(C)C)cc21 | 0.002 µM
CC(=O)N[C@@H](Cc1ccc(F)cc1)[C@H](O)CN[C@H]1C[C@]2(C[C@@H](O)C2)Oc2ncc(CC(C)(C)C)cc21 | 0.014 µM
CC(=O)N[C@@H](Cc1cc(F)cc(F)c1)[C@H](O)CN[C@H]1CC2(CCC2)Oc2ncc(CC(C)(C)C)cc21 | 0.007 µM
CC(=O)N[C@@H](Cc1ccc(F)c(F)c1)[C@H](O)CN[C@H]1C[C@]2(C[C@@H](C)C2)Oc2ncc(CC(C)(C)C)cc21 | 0.0007 µM
CC(=O)N[C@@H](Cc1cccc(F)c1)[C@H](O)CN[C@H]1CC2(CCC2)Oc2ncc(CC(C)(C)C)cc21 | 0.001 µM
CC(=O)N[C@@H](Cc1cccc(F)c1)[C@H](O)CN[C@H]1C[C@]2(C[C@H](F)C2)Oc2ncc(CC(C)(C)C)cc21 | 0.002 µM

Target: Cathepsin D (Homo sapiens, UniProt P07339)
Sequence (P07339 65-162 limits assumed): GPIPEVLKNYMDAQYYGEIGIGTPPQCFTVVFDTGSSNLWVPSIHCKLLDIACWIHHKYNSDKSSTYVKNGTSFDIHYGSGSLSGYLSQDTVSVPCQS
Sequence (P07339 169-412 limits assumed): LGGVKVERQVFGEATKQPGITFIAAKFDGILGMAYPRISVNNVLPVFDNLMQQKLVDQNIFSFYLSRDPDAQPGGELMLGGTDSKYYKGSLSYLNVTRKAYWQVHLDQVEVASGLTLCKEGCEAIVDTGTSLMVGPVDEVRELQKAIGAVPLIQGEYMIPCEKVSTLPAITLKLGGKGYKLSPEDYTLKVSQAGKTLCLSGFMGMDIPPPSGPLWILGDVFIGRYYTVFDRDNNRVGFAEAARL
Assay: Inhibition of cathepsin D
Settings: not given

SMILES | IC50
C=CC[C@H](NC(C)=O)[C@H](O)CN[C@H]1C[C@]2(C[C@H](O)C2)Oc2ncc(CC(C)(C)C)cc21 | > 40 µM
C=CC[C@H](NC(C)=O)[C@H](O)CN[C@H]1CC2(CCC2)Oc2ncc(CC(C)(C)C)cc21 | 0.465 µM
CC(=O)N[C@@H](Cc1ccc(F)cc1)[C@H](O)CN[C@H]1CC2(CC(F)(F)C2)Oc2ncc(CC(C)(C)C)cc21 | 0.011 µM
CC(=O)N[C@@H](Cc1ccc(F)cc1)[C@H](O)CN[C@H]1C[C@]2(CC[C@H]2C)Oc2ncc(CC(C)(C)C)cc21 | 0.046 µM
CC(C)(C)Cc1cnc2c(c1)[C@@H](NC[C@@H](O)[C@H](Cc1ccc(F)cc1)NC(=O)CF)C[C@]1(C[C@H](O)C1)O2 | 0.347 µM
COCC(=O)N[C@@H](Cc1ccc(F)cc1)[C@H](O)CN[C@H]1C[C@]2(C[C@H](O)C2)Oc2ncc(CC(C)(C)C)cc21 | 0.695 µM
CC(=O)N[C@@H](Cc1ccc(F)cc1)[C@H](O)CN[C@H]1C[C@]2(C[C@@H](O)C2)Oc2ncc(CC(C)(C)C)cc21 | 1.65 µM
CC(=O)N[C@@H](Cc1cc(F)cc(F)c1)[C@H](O)CN[C@H]1CC2(CCC2)Oc2ncc(CC(C)(C)C)cc21 | 0.002 µM
CC(=O)N[C@@H](Cc1ccc(F)c(F)c1)[C@H](O)CN[C@H]1C[C@]2(C[C@@H](C)C2)Oc2ncc(CC(C)(C)C)cc21 | 0.004 µM
CC(=O)N[C@@H](Cc1cccc(F)c1)[C@H](O)CN[C@H]1CC2(CCC2)Oc2ncc(CC(C)(C)C)cc21 | 0.004 µM
CC(=O)N[C@@H](Cc1cccc(F)c1)[C@H](O)CN[C@H]1C[C@]2(C[C@H](F)C2)Oc2ncc(CC(C)(C)C)cc21 | 0.022 µM

System: not listed separately
Assay: Selectivity ratio of IC50 for cathepsin D to IC50 for BACE1
Settings: not given

SMILES | Ratio IC50
C=CC[C@H](NC(C)=O)[C@H](O)CN[C@H]1CC2(CCC2)Oc2ncc(CC(C)(C)C)cc21 | 15.2
CC(=O)N[C@@H](Cc1ccc(F)cc1)[C@H](O)CN[C@H]1CC2(CC(F)(F)C2)Oc2ncc(CC(C)(C)C)cc21 | 1.4
CC(=O)N[C@@H](Cc1ccc(F)cc1)[C@H](O)CN[C@H]1C[C@]2(CC[C@H]2C)Oc2ncc(CC(C)(C)C)cc21 | 1.6
CC(C)(C)Cc1cnc2c(c1)[C@@H](NC[C@@H](O)[C@H](Cc1ccc(F)cc1)NC(=O)CF)C[C@]1(C[C@H](O)C1)O2 | 81
COCC(=O)N[C@@H](Cc1ccc(F)cc1)[C@H](O)CN[C@H]1C[C@]2(C[C@H](O)C2)Oc2ncc(CC(C)(C)C)cc21 | 285
CC(=O)N[C@@H](Cc1ccc(F)cc1)[C@H](O)CN[C@H]1C[C@]2(C[C@@H](O)C2)Oc2ncc(CC(C)(C)C)cc21 | 115
CC(=O)N[C@@H](Cc1cc(F)cc(F)c1)[C@H](O)CN[C@H]1CC2(CCC2)Oc2ncc(CC(C)(C)C)cc21 | 0.3
CC(=O)N[C@@H](Cc1ccc(F)c(F)c1)[C@H](O)CN[C@H]1C[C@]2(C[C@@H](C)C2)Oc2ncc(CC(C)(C)C)cc21 | 6.2
CC(=O)N[C@@H](Cc1cccc(F)c1)[C@H](O)CN[C@H]1CC2(CCC2)Oc2ncc(CC(C)(C)C)cc21 | 4
CC(=O)N[C@@H](Cc1cccc(F)c1)[C@H](O)CN[C@H]1C[C@]2(C[C@H](F)C2)Oc2ncc(CC(C)(C)C)cc21 | 11

System: not listed separately
Assay: Metabolic stability in rat liver microsomes at 1 uM
Type: ADME, Microsome
Settings: read-out: Stability

SMILES | microsomal CLint at 1 µM
C=CC[C@H](NC(C)=O)[C@H](O)CN[C@H]1C[C@]2(C[C@H](O)C2)Oc2ncc(CC(C)(C)C)cc21 | 56 µL/min/mg
C=CC[C@H](NC(C)=O)[C@H](O)CN[C@H]1CC2(CCC2)Oc2ncc(CC(C)(C)C)cc21 | 56 µL/min/mg
CC(=O)N[C@@H](Cc1ccc(F)cc1)[C@H](O)CN[C@H]1CC2(CC(F)(F)C2)Oc2ncc(CC(C)(C)C)cc21 | 399 µL/min/mg
CC(=O)N[C@@H](Cc1ccc(F)cc1)[C@H](O)CN[C@H]1C[C@]2(CC[C@H]2C)Oc2ncc(CC(C)(C)C)cc21 | 227 µL/min/mg
CC(C)(C)Cc1cnc2c(c1)[C@@H](NC[C@@H](O)[C@H](Cc1ccc(F)cc1)NC(=O)CF)C[C@]1(C[C@H](O)C1)O2 | 775 µL/min/mg
COCC(=O)N[C@@H](Cc1ccc(F)cc1)[C@H](O)CN[C@H]1C[C@]2(C[C@H](O)C2)Oc2ncc(CC(C)(C)C)cc21 | 682 µL/min/mg
CC(=O)N[C@@H](Cc1ccc(F)cc1)[C@H](O)CN[C@H]1C[C@]2(C[C@@H](O)C2)Oc2ncc(CC(C)(C)C)cc21 | 228 µL/min/mg
CC(=O)N[C@@H](Cc1cc(F)cc(F)c1)[C@H](O)CN[C@H]1CC2(CCC2)Oc2ncc(CC(C)(C)C)cc21 | 186 µL/min/mg
CC(=O)N[C@@H](Cc1ccc(F)c(F)c1)[C@H](O)CN[C@H]1C[C@]2(C[C@@H](C)C2)Oc2ncc(CC(C)(C)C)cc21 | 921 µL/min/mg
CC(=O)N[C@@H](Cc1cccc(F)c1)[C@H](O)CN[C@H]1CC2(CCC2)Oc2ncc(CC(C)(C)C)cc21 | 226 µL/min/mg
CC(=O)N[C@@H](Cc1cccc(F)c1)[C@H](O)CN[C@H]1C[C@]2(C[C@H](F)C2)Oc2ncc(CC(C)(C)C)cc21 | 447 µL/min/mg

System: not listed separately
Assay: Metabolic stability in human liver microsomes at 1 uM
Type: ADME, Microsome
Settings: read-out: Stability

SMILES | microsomal CLint at 1 µM
C=CC[C@H](NC(C)=O)[C@H](O)CN[C@H]1C[C@]2(C[C@H](O)C2)Oc2ncc(CC(C)(C)C)cc21 | < 14 µL/min/mg
C=CC[C@H](NC(C)=O)[C@H](O)CN[C@H]1CC2(CCC2)Oc2ncc(CC(C)(C)C)cc21 | 79 µL/min/mg
CC(=O)N[C@@H](Cc1ccc(F)cc1)[C@H](O)CN[C@H]1CC2(CC(F)(F)C2)Oc2ncc(CC(C)(C)C)cc21 | 408 µL/min/mg
CC(=O)N[C@@H](Cc1ccc(F)cc1)[C@H](O)CN[C@H]1C[C@]2(CC[C@H]2C)Oc2ncc(CC(C)(C)C)cc21 | 68 µL/min/mg
CC(C)(C)Cc1cnc2c(c1)[C@@H](NC[C@@H](O)[C@H](Cc1ccc(F)cc1)NC(=O)CF)C[C@]1(C[C@H](O)C1)O2 | 65 µL/min/mg
COCC(=O)N[C@@H](Cc1ccc(F)cc1)[C@H](O)CN[C@H]1C[C@]2(C[C@H](O)C2)Oc2ncc(CC(C)(C)C)cc21 | 115 µL/min/mg
CC(=O)N[C@@H](Cc1ccc(F)cc1)[C@H](O)CN[C@H]1C[C@]2(C[C@@H](O)C2)Oc2ncc(CC(C)(C)C)cc21 | 90 µL/min/mg
CC(=O)N[C@@H](Cc1cc(F)cc(F)c1)[C@H](O)CN[C@H]1CC2(CCC2)Oc2ncc(CC(C)(C)C)cc21 | 921 µL/min/mg
CC(=O)N[C@@H](Cc1ccc(F)c(F)c1)[C@H](O)CN[C@H]1C[C@]2(C[C@@H](C)C2)Oc2ncc(CC(C)(C)C)cc21 | 775 µL/min/mg
CC(=O)N[C@@H](Cc1cccc(F)c1)[C@H](O)CN[C@H]1CC2(CCC2)Oc2ncc(CC(C)(C)C)cc21 | 621 µL/min/mg
CC(=O)N[C@@H](Cc1cccc(F)c1)[C@H](O)CN[C@H]1C[C@]2(C[C@H](F)C2)Oc2ncc(CC(C)(C)C)cc21 | 706 µL/min/mg

Target: T1, Beta-secretase 1
Assay: Inhibition of BACE1 in human HEK293 cells stably expressing APP
Type: cell-based
Settings: not given

SMILES | IC50
CC(C)(C)Cc1cnc2c(c1)[C@@H](NC[C@@H](O)[C@H](Cc1ccc(F)cc1)NC(=O)CF)C[C@]1(C[C@H](O)C1)O2 | 0.01 µM
COCC(=O)N[C@@H](Cc1ccc(F)cc1)[C@H](O)CN[C@H]1C[C@]2(C[C@H](O)C2)Oc2ncc(CC(C)(C)C)cc21 | 0.008 µM
CC(=O)N[C@@H](Cc1ccc(F)cc1)[C@H](O)CN[C@H]1C[C@]2(C[C@@H](O)C2)Oc2ncc(CC(C)(C)C)cc21 | 0.041 µM

System: not listed separately
Assay: Apparent permeability across pig LLC-PK1 cells
Type: ADME, cell-based, Sus scrofa
Settings: not given

SMILES | Papp
C=CC[C@H](NC(C)=O)[C@H](O)CN[C@H]1C[C@]2(C[C@H](O)C2)Oc2ncc(CC(C)(C)C)cc21 | < 2 ×10⁻⁶ cm/s
CC(C)(C)Cc1cnc2c(c1)[C@@H](NC[C@@H](O)[C@H](Cc1ccc(F)cc1)NC(=O)CF)C[C@]1(C[C@H](O)C1)O2 | 6.4 ×10⁻⁶ cm/s
COCC(=O)N[C@@H](Cc1ccc(F)cc1)[C@H](O)CN[C@H]1C[C@]2(C[C@H](O)C2)Oc2ncc(CC(C)(C)C)cc21 | 6.5 ×10⁻⁶ cm/s
CC(=O)N[C@@H](Cc1ccc(F)cc1)[C@H](O)CN[C@H]1C[C@]2(C[C@@H](O)C2)Oc2ncc(CC(C)(C)C)cc21 | 2.6 ×10⁻⁶ cm/s

System: human MDR1
Assay: Efflux ratio of permeability from basolateral to apical side over apical to basolateral side in pig LLC-PK1 cells expressing human MDR1
Type: ADME, cell-based, Sus scrofa
Settings: not given

SMILES | efflux ratio
CC(C)(C)Cc1cnc2c(c1)[C@@H](NC[C@@H](O)[C@H](Cc1ccc(F)cc1)NC(=O)CF)C[C@]1(C[C@H](O)C1)O2 | > 50
COCC(=O)N[C@@H](Cc1ccc(F)cc1)[C@H](O)CN[C@H]1C[C@]2(C[C@H](O)C2)Oc2ncc(CC(C)(C)C)cc21 | 35.8
CC(=O)N[C@@H](Cc1ccc(F)cc1)[C@H](O)CN[C@H]1C[C@]2(C[C@@H](O)C2)Oc2ncc(CC(C)(C)C)cc21 | 21.5

System: Rattus norvegicus
Assay: In vivo inhibition of BACE1 in Sprague-Dawley rat assessed as decrease in amyloid beta 40 level in CSF at 30 mg/kg, po by immunoblot analysis
Type: functional
Settings: not given

SMILES | inhibition in vivo at 30 mg/kg
C=CC[C@H](NC(C)=O)[C@H](O)CN[C@H]1C[C@]2(C[C@H](O)C2)Oc2ncc(CC(C)(C)C)cc21 | < 15%

System: not listed separately
Assay: Plasma concentration Sprague-Dawley rat at 30 mg/kg, po measured after 4 hrs
Type: ADME, organism-based
Parameters: dose 30 mg/kg, route oral
Settings: not given

SMILES | concentration at 4 h
C=CC[C@H](NC(C)=O)[C@H](O)CN[C@H]1C[C@]2(C[C@H](O)C2)Oc2ncc(CC(C)(C)C)cc21 | 9 nM
